#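 Compound exposure: 48 hours, 5 concentrations, 96-well plates. Here, GI50 denotes the concentration required for 50% inhibition of growth. TGI is the concentration that stops growth completely.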
# System: MDA-MB-468 breast
# Assay: NCI-60 cell line screen, 48 h
Compound,GI50 [nM],TGI [nM]
COc1ccc2c(c1)CCCN2S(=O)(=O)c1ccccc1[N+](=O)[O-],25700,95100
Cc1cc(C(=O)O)c(C)n1-c1cccc(C(=O)O)c1,> 100000,> 100000
Cc1ccc(C(SCC(N)C(=O)O)(c2ccccc2)c2ccccc2)cc1 (configuration not stated),45.3,> 49500
Cc1cc(N2CCCC2)nc(NCc2cc(Nc3ccnc4cc(Cl)ccc34)ccc2F)n1,1140,2610
N#Cc1c(N)nc(N)nc1N[C@H](c1nc2c(F)ccc(Cl)c2c(=O)n1-c1cccnc1)C1CC1,2040,13900
N=C(N)c1ccc(-c2ccc(-c3cccs3)s2)s1,217,651
C#C[C@]1(O)CC[C@H]2[C@@H]3CC=C4c5sc(Nc6cc(OC)ccc6OC)nc5CC[C@]4(C)[C@H]3CC[C@@]21C,1530,3960
CCC(=O)Nc1ccccc1C#C/C=C\C#Cc1ccccc1C(F)(F)F,1980,> 14000
O=C1C(=O)c2ccccc2C(O)=C1CCCc1ccc(C2CCCCCC2)cc1,397,17200
CCCCc1n(Cc2ccc3ccccc3c2)cc[n+]1Cc1ccc2ccccc2c1,297,1130
COc1cc(-c2n/c(=C\c3c(O)[nH]c4cc(Cl)ccc34)cc3c2=Nc2ccccc2-3)cc(OC)c1OC,3340,20900
O=[n+]1c2ccccc2n([O-])c2cc(Cl)ccc21,1240,4960
O=C1Nc2ccccc2/C1=C\c1nc(C2CCN(S(=O)(=O)c3ccc(F)cc3)CC2)n2ccccc12,3920,> 100000
COC(=O)/C=C1/SC(N2N=C(c3cccs3)CC2c2ccc(F)cc2)=NC1=O (configuration not stated),1940,4370
Cc1cc2nc3cc(C)c(N)cc3[n+](-c3ccccc3)c2cc1N,79.8,1120
CCCCC(=O)N/N=C/c1c(O)ccc2ccccc12,999,11700
